Results on 31 compounds are retold here after ChEMBL document CHEMBL1201862, “PubChem BioAssay data set” (2004).

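How tested: cells in 96-well plates exposed to compound for 48 hours at five concentrations. The concentration for 50% growth inhibition is given as GI50.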 Activity calls are given as the source filed them. Rule as the data show it: active = GI50 up to about 1.1 µM and inactive = higher. Where only a bound is given, the exact number is not on record here.

Test systems include SR; LXFL 529; KM-20L2; NCI/ADR-RES; ACHN; BT-549; DMS-273; XF498; RXF 631.
Common to all, as to assay: NCI-60 cell line screen, 48 h

As to `O=C(NN1C(=O)C(Cl)C1c1ccccc1O)c1ccccc1O` (stereo unspecified), the GI50 in the test with SR was 17.8 µM (inactive); in the test with LXFL 529, 41.4 µM (inactive); in the test on KM-20L2, 4.51 µM (inactive).

For the compound `CCc1c(O)c2c(c(O)c1C(C)=O)C(=O)c1c(cc(O)c(C(=O)O)c1C(=O)O)C2=O`, the GI50 with SR, with NCI/ADR-RES, in the test on ACHN and in the test on BT-549 was > 100 µM (inactive) each time.

For the compound `c1ccc2c3c(ccc2c1)-c1[nH]ncc1CCO3`, the GI50 in the test on NCI/ADR-RES is 38.2 µM (inactive); in the test with DMS-273, 40.5 µM (inactive); with XF498 it was 32.4 µM (inactive); in the test on KM-20L2, 34.5 µM (inactive).

On to `Cc1cnc(Cl)nc1C(C#N)c1nc2ccccc2s1` (stereo unspecified), for which the results for the GI50 in the test on NCI/ADR-RES, in the test with ACHN and in the test with BT-549 were 22 µM (inactive), 18.7 µM (inactive) and 12.4 µM (inactive), respectively.

For the compound `NC(=O)c1c[se]c(C2OC(COP(=O)(O)CP(=O)(O)OCC3OC(n4cnc5c(N)ncnc54)C(O)C3O)C(O)C2O)n1` (stereo unspecified), the GI50 with SR was 35 µM (inactive); in the test with ACHN, 64.3 µM (inactive); in the test with DMS-273 it was 38.6 µM (inactive); in the test on XF498 it was > 100 µM (inactive); in the test on LXFL 529 it was 51.4 µM (inactive); in the test with KM-20L2 it was 74.5 µM (inactive).

Consider `O=[N+]([O-])c1ccc(Cl)cc1N/N=C/c1ccnc2ccccc12`, for which the GI50 was > 100 µM (inactive) in the test with SR, 53.3 µM (inactive) in the test with NCI/ADR-RES, > 100 µM (inactive) in the test on ACHN and > 100 µM (inactive) in the test on BT-549.

`COc1cccc2c(Nc3ccc(S(=O)(=O)Nc4ncccn4)cc3)c3ccc([N+](=O)[O-])cc3nc12`: the GI50 in the test with SR is 1.95 µM (inactive); in the test with ACHN it was 7.06 µM (inactive); in the test on BT-549, 59.7 µM (inactive).

Take `COc1ccc(Cc2nn(C3OC(COC(C)=O)C(OC(C)=O)C(OC(C)=O)C3OC(C)=O)c(=S)n(-c3ccc(OC)cc3)c2=O)cc1` (stereo unspecified): the GI50 with NCI/ADR-RES, in the test on DMS-273, with XF498 and with KM-20L2 was > 100 µM (inactive) throughout.

On to `CC(C)C(=O)/C=C/c1c(Cl)cccc1Cl`, for which the GI50 in the test on SR is 1.91 µM (inactive); with NCI/ADR-RES, 3.04 µM (inactive); with ACHN, 4.74 µM (inactive); with BT-549, 2.64 µM (inactive).

Consider `Cc1ccc(S(=O)(=O)OC[C@@H]2CO2)cc1`, for which the GI50 in the test on SR is > 100 µM (inactive); in the test on ACHN it was > 100 µM (inactive); in the test with RXF 631, 68.7 µM (inactive); with DMS-273, > 100 µM (inactive); in the test on LXFL 529, > 100 µM (inactive); in the test with KM-20L2 it was > 100 µM (inactive).

In the case of `COc1cccc(NC(=O)CSc2nnc(-c3ccc(NC(C)=O)cc3)o2)c1`, the GI50 in the test with SR is 90.2 µM (inactive); in the test on ACHN, > 100 µM (inactive); with DMS-273 it was > 100 µM (inactive); in the test with LXFL 529, > 100 µM (inactive); in the test with KM-20L2 it was 94.6 µM (inactive).

With `CC(Cc1ccccc1)Nc1ncnc2c1ncn2C1OC(CO)CC1O` (stereo unspecified), the GI50 in the test on NCI/ADR-RES, in the test on ACHN and in the test with BT-549 was > 100 µM (inactive) in each case.

In the case of `O=C(c1ccccc1)c1nc2ccc(Cl)cc2c2c1CCCO2`, the GI50 is > 100 µM (inactive) in the test with SR; > 100 µM (inactive) in the test on ACHN; > 100 µM (inactive) with DMS-273; 65.9 µM (inactive) in the test with XF498; > 100 µM (inactive) with LXFL 529; > 100 µM (inactive) in the test on KM-20L2.

With `O=C1C(Br)=CC2([N+](=O)[O-])CCNC3=C(C4=NCCc5c[nH]c(c54)C3=O)C2=C1Br` (stereo unspecified), the GI50 with NCI/ADR-RES is 0.128 µM (active); in the test on DMS-273, 1.72 µM (inactive); in the test with XF498, 2.24 µM (inactive); in the test on KM-20L2, 0.414 µM (active).

For the compound `CCOCNC(=O)N(COCC)COCC`, the GI50 in the test with ACHN, in the test on RXF 631, in the test with XF498, in the test on LXFL 529 and in the test with KM-20L2 was > 100 µM (inactive) throughout.

For `CCCN(CCC)c1cc2c(cc1F)c(=O)c(C(=O)O)cn2-c1ccc(N2CCN(C)CC2)cn1`, the values for the GI50 in the test with SR, in the test on NCI/ADR-RES and with BT-549 were 15.7 µM (inactive), 17.6 µM (inactive) and 10.7 µM (inactive), respectively.

For the compound `Cc1c2cnccc2c(C)c2c1c1ccccc1n2CC1CO1` (stereo unspecified), the GI50 in the test on NCI/ADR-RES is 0.826 µM (active); in the test on DMS-273, 0.638 µM (active); with KM-20L2, 1.3 µM (inactive).

In the case of `CN1NC(c2ccc(Cl)cc2)=C(C#N)C(=O)CC1c1ccccc1` (stereo unspecified), the GI50 with SR, in the test with ACHN, in the test on RXF 631, in the test with DMS-273, in the test on LXFL 529 and in the test with KM-20L2 was > 100 µM (inactive) throughout.

`O=C(Cc1nc2ccc(C(=O)c3ccccc3)cc2nc1O)C(=O)Nc1nc2ccccc2[nH]1`: the GI50 was 11.7 µM (inactive) in the test with SR; 86.7 µM (inactive) with ACHN; 65.5 µM (inactive) with RXF 631; 20.9 µM (inactive) in the test on DMS-273; 45.2 µM (inactive) with LXFL 529; 63.5 µM (inactive) in the test with KM-20L2.

For the compound `CSc1nc2c(c(N3CCOCC3)n1)C(O)n1c(nc3ccccc31)S2` (stereo unspecified), the GI50 was 51.2 µM (inactive) in the test with SR, 22.6 µM (inactive) with NCI/ADR-RES, 36.6 µM (inactive) with ACHN and 30.5 µM (inactive) with BT-549.

Regarding `CCOC(=O)Oc1cc2ccsc2c2c1c1ccccc1n2C(=O)OCC`, the GI50 in the test on SR is > 100 µM (inactive); in the test on NCI/ADR-RES, 38 µM (inactive); with ACHN, 28.3 µM (inactive); with BT-549 it was 59 µM (inactive).

On to `NC(=O)CCC(NCc1c2ccccc2[n+]([O-])c2ccccc12)C(=O)O` (stereo unspecified), for which the GI50 in the test with ACHN was 78 µM (inactive); with DMS-273 it was 56.8 µM (inactive); in the test on LXFL 529, 45.1 µM (inactive); with KM-20L2 it was 52.6 µM (inactive).

Turning to `CN1CCC(C(O)(c2ccccc2)c2ccc(Br)cc2)CC1` (stereo unspecified), the GI50 is 17.5 µM (inactive) with SR, 34.9 µM (inactive) in the test with NCI/ADR-RES, 31.2 µM (inactive) with ACHN and > 100 µM (inactive) with BT-549.

Take `CCOC(=O)C(Cc1ccc(N=NN(C)C)cc1)NC(=O)CC1c2ccccc2-c2ccccc21` (stereo unspecified): the GI50 is 48.9 µM (inactive) in the test on SR, 35.6 µM (inactive) in the test on ACHN, 55.3 µM (inactive) in the test on DMS-273 and 50.5 µM (inactive) with LXFL 529.

On to `COC(=O)c1cccc(N[C@@H]2c3cc4c(cc3C(c3cc(OC)c(O)c(OC)c3)[C@H]3C(=O)OCC32)OCO4)c1` (stereo partly specified), for which the GI50 was 0.468 µM (active) in the test on NCI/ADR-RES, 0.362 µM (active) with DMS-273, 0.701 µM (active) in the test with XF498 and 2.75 µM (inactive) in the test on KM-20L2.

Regarding `COc1cc(O)c2c(=O)cc(C3(O)C=CC(=O)C=C3)oc2c1`, the GI50 in the test on SR was < 0.01 µM (active); with NCI/ADR-RES it was 0.0588 µM (active); with ACHN it was < 0.045 µM (active); in the test with BT-549, 0.363 µM (active).

On to `c1ccc(-c2nnc(-c3nsc4ccccc34)o2)cc1`, for which the GI50 with DMS-273, in the test with LXFL 529 and with KM-20L2 was > 100 µM (inactive) throughout.

On to `NC(C/C=C/P(=O)(O)O)C(=O)O` (stereo unspecified), for which the GI50 with SR, in the test with NCI/ADR-RES and in the test with ACHN was > 100 µM (inactive) throughout.

For `COc1ccc(-c2cc(O)c3ccc(C)nc3n2)cc1`, the GI50 with NCI/ADR-RES, in the test on ACHN and in the test with BT-549 was > 100 µM (inactive) throughout.

In the case of `Nc1nc(O)c2ncn(C3C=CC(CO)O3)c2n1` (stereo unspecified), the GI50 in the test with SR, with NCI/ADR-RES and in the test with BT-549 was > 100 µM (inactive) in each case.

Turning to `CC(C)[C@](O)(C(=O)OCC1=CCN2CC[C@@H](O)[C@@H]12)[C@H](C)O`, the GI50 in the test with NCI/ADR-RES, in the test with DMS-273, with XF498 and in the test on KM-20L2 was > 375 µM (inactive) in each case.
